Measured values as given in US20130045483A1, “YEAST CELLS EXPRESSING AMYLOID BETA AND USES THEREFOR” (priority 2011, published 2013).

How the values were obtained:
GAL controlled YFP = assay: GAL1-induced expression, flow cytometry of GAL controlled YFP; assay type: cell-based, yeast; conditions: flow cytometry of GAL controlled YFP (data not shown)
Procedure: (§1) To further test the effect of clioquinol, a control strain and a strain expressing toxic levels of Aβ were grown in liquid culture with various concentrations of the compound.
A strain carrying an integrated YFP was transformed with the putative Aβ suppressors. The resulting strains were grown in glucose media in a 96 well format, diluted into the various inducing media (galactose, glucose+1 uM estradiol, glycerol+1 uM estradiol) [5 ul culture added to 120 ul media], and incubated over night at 30° C. with mild shaking. These overnight cultures were diluted 20 fold into water and YFP levels were measured using a Guava flow cytometer. Each strain was measured 3 times and 5000 cells were counted for each well. The whole experiment was repeated 3 times. Values are averages of these 3 experiments and reported in percent of the vector control strain YFP levels.

ssAβ 1-42 strain = assay: Clioquinol rescue in liquid culture (Bioscreen OD600 growth); assay type: cell-based, yeast; conditions: for growth of the Aβ expressing strain: inducing (galactose) media, various concentrations; for growth at the optimal concentration compared with control strain: control strain expressing YFP
Procedure: as §1
Yeast strains were grown overnight to saturation in synthetic medium with glucose as the carbon source after inoculation from a colony. These cultures were used to inoculate raffinose cultures. Raffinose cultures in log phase growth (OD600 0.7-0.9) were diluted to an OD600 of 0.03 in synthetic medium with galactose as the carbon source, and […] of the cell suspension was distributed to each well of a Bioscreen plate. […] of clioquinol (Sigma C8133, ˜95%), dissolved in DMSO at 100 times the final intended concentration, was added to each well. A Labsystems Bioscreen C was used to maintain the plate at 30 degrees C. and make OD600 measurements on each well at 10-minute intervals over a period of approximately three days. Each condition was performed in duplicate.

Oc1c(I)cc(Cl)c2cccnc12 [clioquinol]
effect on GAL1-induced expression (GAL controlled YFP): did not diminish GAL1-induced expression
toxicity at higher concentrations (ssAβ 1-42 strain; higher concentrations, ssAβ 1-42 strain and YFP control strain): toxic to both strains
growth of the Aβ expressing strain (ssAβ 1-42 strain): rescued growth levels in a dose dependent manner
growth of the Aβ expressing strain (ssAβ 1-42 strain; listed as Clioquinol): improved the growth of the Aβ expressing strain in a dose dependent manner
growth at the optimal concentration compared with control strain (ssAβ 1-42 strain): restored growth levels to those of a control strain expressing YFP
growth at the optimal concentration compared with control strain (ssAβ 1-42 strain; listed as Clioquinol): nearly as robust as that of the control strain
